Results taken from PubChem BioAssay AID1918995 (Molecular Pharmacology Branch, DTP, NCI, 2023).

System: 324938-238-R-J1-PDC complex spheroid growth, % test/control
Assay: Anticancer human tumor 324938-238-R-J1-PDC patient-derived bladder carcinoma cell line growth inhibition [AhR]
Details: for IC50: curve of first compound; for viability, T/C: stronger effect = lower value
In short: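 Spheroids combined tumor cells with HUVEC endothelial cells and human MSCs as stroma. AhR antagonists were paired with standard or investigational drugs, each dosed in half-log steps down from near clinical Cmax, or from 10 microM where Cmax was unknown.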

[1] = second compound 0.1 µM, first compound 0.0316 µM
[2] = second compound 0.1 µM, first compound 0.1 µM
[3] = second compound 0.1 µM, first compound 0.316 µM
[4] = second compound 0.1 µM, first compound 1 µM
[5] = second compound 0.1 µM, first compound 3.16 µM
[6] = second compound 0.1 µM, first compound 10 µM
[7] = second compound 0.316 µM, first compound 0.0316 µM
[8] = second compound 0.316 µM, first compound 0.1 µM
[9] = second compound 0.316 µM, first compound 0.316 µM
[10] = second compound 0.316 µM, first compound 1 µM
[11] = second compound 0.316 µM, first compound 3.16 µM
[12] = second compound 0.316 µM, first compound 10 µM
[13] = second compound 1 µM, first compound 0.0316 µM
[14] = second compound 1 µM, first compound 0.1 µM
[15] = second compound 1 µM, first compound 0.316 µM
[16] = second compound 1 µM, first compound 1 µM
[17] = second compound 1 µM, first compound 3.16 µM
[18] = second compound 1 µM, first compound 10 µM
[19] = second compound 3.16 µM, first compound 0.0316 µM
[20] = second compound 3.16 µM, first compound 0.1 µM
[21] = second compound 3.16 µM, first compound 0.316 µM
[22] = second compound 3.16 µM, first compound 1 µM
[23] = second compound 3.16 µM, first compound 3.16 µM
[24] = second compound 3.16 µM, first compound 10 µM
[25] = second compound 10 µM, first compound 0.0316 µM
[26] = second compound 10 µM, first compound 0.1 µM
[27] = second compound 10 µM, first compound 0.316 µM
[28] = second compound 10 µM, first compound 1 µM
[29] = second compound 10 µM, first compound 3.16 µM
[30] = second compound 10 µM, first compound 10 µM
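Note: spheroids exposed to agents for seven days before viability read.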

Row | SMILES | IC50 (second compound 0.1 µM) | IC50 (second compound 0.316 µM) | IC50 (second compound 1 µM) | IC50 (second compound 3.16 µM) | IC50 (second compound 10 µM) | viability, T/C [1] | viability, T/C [2] | viability, T/C [3] | viability, T/C [4] | viability, T/C [5] | viability, T/C [6] | viability, T/C [7] | viability, T/C [8] | viability, T/C [9] | viability, T/C [10] | viability, T/C [11] | viability, T/C [12] | viability, T/C [13] | viability, T/C [14] | viability, T/C [15] | other results
1 | COc1cc(Nc2ncc3c(n2)-c2ccc(Cl)cc2C(c2c(F)cccc2OC)=NC3)ccc1C(=O)O + CC(CO)NC(=O)c1cc(-c2ccc(Cl)cc2)nn(-c2cnn(C)c2)c1=O | 0.0762 µM | 0.0791 µM | 0.0728 µM | < 0.0316 µM | < 0.0316 µM | 77% | 41.7% | 23.5% | 23.6% | 24.7% | 31% | 71.7% | 44.5% | 27.4% | 25.4% | 23.8% | 30.1% | 60.1% | 46.1% | 27.6% | viability, T/C [16]: 28.6%; viability, T/C [17]: 26.9%; viability, T/C [18]: 29.2%; viability, T/C [19]: 49.4%; viability, T/C [20]: 42.5%; viability, T/C [21]: 30%; viability, T/C [22]: 25.7%; viability, T/C [23]: 28.2%; viability, T/C [24]: 29.8%; viability, T/C [25]: 54.7%; viability, T/C [26]: 40.4%; viability, T/C [27]: 32.8%; viability, T/C [28]: 34.9%; viability, T/C [29]: 31.9%; viability, T/C [30]: 39.7%
2 | NS(=O)(=O)OCC1CC(n2ccc3c(NC4CCc5ccccc54)ncnc32)CC1O (stereo not given) + CC(CO)NC(=O)c1cc(-c2ccc(Cl)cc2)nn(-c2cnn(C)c2)c1=O | 0.534 µM | 0.558 µM | 0.586 µM | 0.45 µM | 0.379 µM | 90.3% | 96.4% | 66.8% | 31.1% | 25.3% | 28.9% | 88.5% | 101% | 64% | 37.3% | 21.9% | 27.1% | 77.1% | 82.2% | 64.1% | viability, T/C [16]: 38.2%; viability, T/C [17]: 22.9%; viability, T/C [18]: 29.1%; viability, T/C [19]: 69.9%; viability, T/C [20]: 67.8%; viability, T/C [21]: 55.4%; viability, T/C [22]: 37.3%; viability, T/C [23]: 27.5%; viability, T/C [24]: 26.9%; viability, T/C [25]: 61.5%; viability, T/C [26]: 58.6%; viability, T/C [27]: 51.5%; viability, T/C [28]: 40.8%; viability, T/C [29]: 29.1%; viability, T/C [30]: 30.5%
